In EP3572411A1, “THIAZOLE DERIVATIVES AS METALLO-BETA-LACTAMASE INHIBITORS” (Antabio SAS, priority 2018, dated 2019) one finds Ki data, which are given here for 20 compounds.

Where two headings read alike, the source gives them in different places.

Experiment in all cases: In vitro enzyme inhibition assay (imipenem hydrolysis, UV 299 nm)
Common to all, as to format: biochemical

One assay has as its target T1, IMP-1 (Serratia marcescens, UniProt P52699).
T1 construct: VIM-1; VIM-2
The method, then:
(§1) In vitro enzyme inhibition assays: Enzyme inhibition assays are performed using purified MBL enzymes (NDM-1; VIM-1; VIM-2; IMP-1) in 10mM HEPES buffer pH 7.5 in 96-well microtiter plates. Imipenem (300µM) is used as substrates and its hydrolysis is followed at UV 299 nm during 10mn every 30 seconds using a Perkin Elmer Envision UV fluorescence plate reader. Hydrolysis rate data in presence of a range of inhibitors are analysed using Dotmatics database software and calculated IC50 values are converted to Ki values using the Cheng-Prusoff equation. Ki = IC50 / (1+([S]/Km) and where the Km values for […] are 70 µM, 1.5 µM, 9 µM and 25 µM respectively. Compound dilution is performed in DMSO. Mean Ki values from multiple experiments are presented. Results are shown in Table 1.

The target in a further assay is T2, NDM-1 (Klebsiella pneumoniae, UniProt C7C422).
T2 construct: VIM-1; VIM-2
T2 sequence (C7C422 29-270, looked up): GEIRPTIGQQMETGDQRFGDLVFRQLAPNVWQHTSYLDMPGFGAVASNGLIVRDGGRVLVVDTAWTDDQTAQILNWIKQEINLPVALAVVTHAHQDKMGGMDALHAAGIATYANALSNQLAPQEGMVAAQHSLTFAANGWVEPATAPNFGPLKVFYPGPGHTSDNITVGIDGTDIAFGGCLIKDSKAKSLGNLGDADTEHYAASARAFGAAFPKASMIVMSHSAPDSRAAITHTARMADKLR
The method, then: as §1

The target of a further assay is T3, VIM-1 (Pseudomonas aeruginosa, UniProt A0A0F7KYQ8).
T3 construct: VIM-1; VIM-2; IMP-1)
The method, then:
as §1

The target in the next assay is T4, VIM-2 (Escherichia coli, UniProt Q5U7L7).
T4 construct: VIM-1; VIM-2
Particulars: read-out: Ki (µM) VIM-2; purified enzyme, 10mM HEPES pH 7.5, Imipenem 300µM; mean Ki from IC50 by Cheng-Prusoff. Here is the method:
as §1

Where [1] appears, read: read-out: Ki (µM) IMP-1; purified enzyme, 10mM HEPES pH 7.5, Imipenem 300µM; mean Ki from IC50 by Cheng-Prusoff.
The mark [2] stands for this setting: read-out: Ki (µM) NDM-1; purified enzyme, 10mM HEPES pH 7.5, Imipenem 300µM; mean Ki from IC50 by Cheng-Prusoff.
Setting [3] is: read-out: Ki (µM) VIM-1; purified enzyme, 10mM HEPES pH 7.5, Imipenem 300µM; mean Ki from IC50 by Cheng-Prusoff.

T1 sequence (P52699 19-246, looked up, species assumed): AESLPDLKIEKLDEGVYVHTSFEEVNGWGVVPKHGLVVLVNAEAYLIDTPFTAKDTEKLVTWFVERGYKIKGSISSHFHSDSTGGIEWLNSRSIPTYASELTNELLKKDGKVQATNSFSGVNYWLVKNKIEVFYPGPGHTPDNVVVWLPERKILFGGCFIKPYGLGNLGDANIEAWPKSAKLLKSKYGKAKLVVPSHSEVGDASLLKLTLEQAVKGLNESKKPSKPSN

`C[n+]1ccn(CC(=O)Nc2ccc(S(=O)(=O)Nc3scnc3C(=O)[O-])cc2F)c1` [Example 1, 1-[({4-[(4-carboxy-1,3-thiazol-5-yl)sulfamoyl]-2-fluorophenyl}carbamoyl)methyl]-3-methyl-1H-imidazol-3-ium]: the Ki on IMP-1 (setting [1]) was 1 to 8 µM; at NDM-1 (setting [2]), below 0.05 µM; on VIM-1 (setting [3]), 0.2 to 0.5 µM; at VIM-2, 0.05 to 0.2 µM.
The like results for `Cc1n(CC(=O)Nc2ccc(S(=O)(=O)Nc3scnc3C(=O)[O-])cc2F)cc[n+]1C` [Example 2, 1-[({4-[(4-carboxy-1,3-thiazol-5-yl)sulfamoyl]-2-fluorophenyl}carbamoyl)methyl]-2,3-dimethyl-1H-imidazol-3-ium] were, in that order, 1 to 8 µM, 0.05 to 0.2 µM, 0.2 to 0.5 µM and 0.05 to 0.2 µM.
Regarding `C[n+]1ccn(CC(=O)Nc2ccc(S(=O)(=O)Nc3scnc3C(=O)[O-])cc2F)c1N` [Example 3, 2-amino-1-[({4-[(4-carboxy-1,3-thiazol-5-yl)sulfamoyl]-2-fluorophenyl}carbamoyl)methyl]-3-methyl-1H-imidazol-3-ium], the Ki on IMP-1 (setting [1]) lay within 1 to 8 µM; at NDM-1 (setting [2]), 0.05 to 0.2 µM; on VIM-1 (setting [3]), 0.2 to 0.5 µM; on VIM-2, 0.05 to 0.2 µM.
Consider `CSc1n(CC(=O)Nc2ccc(S(=O)(=O)Nc3scnc3C(=O)[O-])cc2F)cc[n+]1C` [Example 4], for which the Ki at IMP-1 (purified enzyme, 10mM HEPES pH 7.5, Imipenem 300µM; mean Ki from IC50 by Cheng-Prusoff; read-out: Ki (µM) IMP-1) lay in the range of 1 to 8 µM; at NDM-1 (purified enzyme, 10mM HEPES pH 7.5, Imipenem 300µM; mean Ki from IC50 by Cheng-Prusoff; read-out: Ki (µM) NDM-1), 0.05 to 0.2 µM; on VIM-1 (purified enzyme, 10mM HEPES pH 7.5, Imipenem 300µM; mean Ki from IC50 by Cheng-Prusoff; read-out: Ki (µM) VIM-1), 0.2 to 0.5 µM.
Take `O=C(Cn1cc[n+]2c1COCC2)Nc1ccc(S(=O)(=O)Nc2scnc2C(=O)[O-])cc1F` [Example 5, 1-[({4-[(4-carboxy-1,3-thiazol-5-yl)sulfamoyl]-2-fluorophenyl}carbamoyl)methyl]-1H,5H,6H,8H-4lambda5-imidazo[2,1-c][1,4]oxazin-4-ylium]: the Ki fell in the range of 1 to 8 µM on IMP-1 (setting [1]), 0.05 to 0.2 µM at NDM-1 (setting [2]), 0.5 to 0.8 µM on VIM-1 (setting [3]) and 0.05 to 0.2 µM at VIM-2.
In the case of `Cc1c[n+](C)cn1CC(=O)Nc1ccc(S(=O)(=O)Nc2scnc2C(=O)[O-])cc1F` [Example 6, 1-[({4-[(4-carboxy-1,3-thiazol-5-yl)sulfamoyl]-2-fluorophenyl}carbamoyl)methyl]-3,5-dimethyl-1H-imidazol-3-ium], the Ki lay within 1 to 8 µM on IMP-1 (setting [1]), 0.2 to 0.4 µM at NDM-1 (setting [2]), 0.5 to 0.8 µM on VIM-1 (setting [3]) and 0.05 to 0.2 µM at VIM-2.
As to `Cc1cn(CC(=O)Nc2ccc(S(=O)(=O)Nc3scnc3C(=O)[O-])cc2F)c[n+]1C` [Example 7, 1-[({4-[(4-carboxy-1,3-thiazol-5-yl)sulfamoyl]-2-fluorophenyl}carbamoyl)methyl]-3,4-dimethyl-1H-imidazol-3-ium], the Ki at IMP-1 (setting [1]) is 1 to 8 µM; on NDM-1 (setting [2]), 0.2 to 0.4 µM; at VIM-1 (setting [3]), below 0.2 µM; on VIM-2 it was 0.02 to 0.05 µM.
With `C[n+]1c(N)ccn1CC(=O)Nc1ccc(S(=O)(=O)Nc2scnc2C(=O)[O-])cc1F` [Example 8, 3-amino-1-[({4-[(4-carboxy-1,3-thiazol-5-yl)sulfamoyl]-2-fluorophenyl}carbamoyl)methyl]-2-methyl-1H-pyrazol-2-ium], the Ki lay within 1 to 8 µM at IMP-1 (setting [1]), 0.05 to 0.2 µM at NDM-1 (setting [2]) and 0.2 to 0.5 µM on VIM-1 (setting [3]).
Consider `C[n+]1ccn(CC(=O)Nc2ccc(S(=O)(=O)Nc3scnc3C(=O)[O-])cc2F)n1` [Example 9, 1-[({4-[(4-carboxy-1,3-thiazol-5-yl)sulfamoyl]-2-fluorophenyl}carbamoyl)methyl]-3-methyl-1H-1,2,3-triazol-3-ium], for which the Ki at IMP-1 (setting [1]) was 1 to 8 µM; at NDM-1 (setting [2]), below 0.05 µM; at VIM-1 (setting [3]), 0.2 to 0.5 µM; at VIM-2, 0.05 to 0.2 µM.
On to `C[n+]1cccn1CC(=O)Nc1ccc(S(=O)(=O)Nc2scnc2C(=O)[O-])cc1F` [Example 10, 1-[({4-[(4-carboxy-1,3-thiazol-5-yl)sulfamoyl]-2-fluorophenyl}carbamoyl)methyl]-2-methyl-1H-pyrazol-2-ium], for which the Ki on IMP-1 (setting [1]) was in the range of 1 to 8 µM; on NDM-1 (setting [2]), 0.05 to 0.2 µM; on VIM-1 (setting [3]) it was 0.2 to 0.5 µM.
On to `NCC[n+]1ccn(CC(=O)Nc2ccc(S(=O)(=O)Nc3scnc3C(=O)[O-])cc2F)c1` [Example 11, 3-(2-aminoethyl)-1-[({4-[(4-carboxy-1,3-thiazol-5-yl)sulfamoyl]-2-fluorophenyl}carbamoyl)methyl]-1H-imidazol-3-ium], for which the Ki on IMP-1 (setting [1]) is 1 to 8 µM; at NDM-1 (setting [2]) it was below 0.05 µM; on VIM-1 (setting [3]) it was below 0.2 µM; on VIM-2, 0.02 to 0.05 µM.
Turning to `N=C(N)NCC[n+]1ccn(CC(=O)Nc2ccc(S(=O)(=O)Nc3scnc3C(=O)[O-])cc2F)c1` [Example 12, 3-(2-carbamimidamidoethyl)-1-[({4-[(4-carboxy-1,3-thiazol-5-yl)sulfamoyl]-2-fluorophenyl}carbamoyl)methyl]-1H-imidazol-3-ium], the Ki on IMP-1 (setting [1]) was 1 to 8 µM; at NDM-1 (setting [2]), below 0.05 µM; on VIM-1 (setting [3]) it was below 0.2 µM; at VIM-2, 0.05 to 0.2 µM.
The like results for `C[n+]1ccn(CC(=O)Nc2c(F)cc(S(=O)(=O)Nc3scnc3C(=O)[O-])cc2F)c1` [Example 13, 1-[({4-[(4-carboxy-1,3-thiazol-5-yl)sulfamoyl]-2,6-difluorophenyl}carbamoyl)methyl]-3-methyl-1H-imidazol-3-ium] were, in that order, 1 to 8 µM, 0.05 to 0.2 µM, 0.5 to 0.8 µM and 0.05 to 0.2 µM.
The like results for `NCC[n+]1ccn(CC(=O)Nc2c(F)cc(S(=O)(=O)Nc3scnc3C(=O)[O-])cc2F)c1` [Example 14, 3-(2-aminoethyl)-1-[({4-[(4-carboxy-1,3-thiazol-5-yl)sulfamoyl]-2,6-difluorophenyl}carbamoyl)methyl]-1H-imidazol-3-ium] were, in that order, 1 to 8 µM, below 0.05 µM, below 0.2 µM and 0.02 to 0.05 µM.
As for `N=C(N)NCC[n+]1ccn(CC(=O)Nc2c(F)cc(S(=O)(=O)Nc3scnc3C(=O)[O-])cc2F)c1` [Example 15, 1-(2-carbamimidamidoethyl)-3-[({4-[(4-carboxy-1,3-thiazol-5-yl)sulfamoyl]-2,6-difluorophenyl}carbamoyl)methyl]imidazol-1-ium], the Ki at IMP-1 (setting [1]) is 1 to 8 µM; at NDM-1 (setting [2]), below 0.05 µM; at VIM-1 (setting [3]), below 0.2 µM; on VIM-2 it was 0.02 to 0.05 µM.
The like results for `NCCC[n+]1ccn(CC(=O)Nc2ccc(S(=O)(=O)Nc3scnc3C(=O)[O-])cc2F)c1` [Example 16, 3-(3-aminopropyl)-1-[({4-[(4-carboxy-1,3-thiazol-5-yl)sulfamoyl]-2-fluorophenyl}carbamoyl)methyl]-1H-imidazol-3-ium] were, in that order, 1 to 8 µM, below 0.05 µM, below 0.2 µM and below 0.02 µM.
In the case of `N#Cc1cc(S(=O)(=O)Nc2scnc2C(=O)[O-])ccc1NC(=O)Cn1cc[n+](CCN)c1` [Example 18, 3-(2-aminoethyl)-1-[({4-[(4-carboxy-1,3-thiazol-5-yl)sulfamoyl]-2-cyanophenyl}carbamoyl)methyl]-1H-imidazol-3-ium], the Ki at IMP-1 (setting [1]) is 0.5 to 1 µM; on NDM-1 (setting [2]), 0.05 to 0.2 µM; on VIM-1 (setting [3]) it was below 0.2 µM; on VIM-2, below 0.02 µM.
For `N#Cc1cc(S(=O)(=O)Nc2scnc2C(=O)[O-])ccc1NC(=O)Cn1cc[n+](CCNC(=N)N)c1` [Example 19, 3-(2-carbamimidamidoethyl)-1-[({4-[(4-carboxy-1,3-thiazol-5-yl)sulfamoyl]-2-cyanophenyl}carbamoyl)methyl]-1H-imidazol-3-ium], the Ki on IMP-1 (setting [1]) was 1 to 8 µM; on NDM-1 (setting [2]), 0.2 to 0.4 µM; on VIM-1 (setting [3]), below 0.2 µM; on VIM-2 it was 0.02 to 0.05 µM.
The like results for `CN(C)CC[n+]1ccn(CC(=O)Nc2ccc(S(=O)(=O)Nc3scnc3C(=O)[O-])cc2F)c1` [Example 20, 3-[({4-[(4-carboxy-1,3-thiazol-5-yl)sulfamoyl]-2-fluorophenyl}carbamoyl)methyl]-1-[2-(dimethylamino)ethyl]imidazol-1-ium] were, in that order, 1 to 8 µM, below 0.05 µM, below 0.2 µM and 0.05 to 0.2 µM.
The like results for `C[n+]1cn(CC(=O)Nc2ccc(S(=O)(=O)Nc3scnc3C(=O)[O-])cc2F)cn1` [Example 22, 4-[({4-[(4-carboxy-1,3-thiazol-5-yl)sulfamoyl]-2-fluorophenyl}carbamoyl)methyl]-1-methyl-1,2,4-triazol-1-ium] were, in that order, 0.5 to 1 µM, 0.05 to 0.2 µM, 0.2 to 0.5 µM and 0.05 to 0.2 µM.

The term Ki denotes a measure of affinity in units of concentration, obtained from inhibition or displacement.
